This note sets out measurements from patent US10894946B2, “Multiloop engineered heart muscle tissue” (Tissue Systems Holding GmbH, priority 2005, dated 2021).

Entries after “also recorded” stand apart in the source; their conditions may differ.

This experiment has as its system engineered heart tissue (EHT) rings from heart cells of neonatal rats. Kind of experiment: isometric contraction experiments of single EHT rings (twitch tension, calcium response curves). The class given is cell-based, rat. To be noted: culture medium supplemented with 10 pg/ml insulin vs untreated controls; n=4 vs n=3. Here is the method:
In a further step, the force-generating engineered heart tissue rings, which are in contact with each other, are cultured under conditions which allow the fusion of the contacted ring structures to form an artificial heart muscle construct. For this purpose, the engineered heart tissue rings are normally incubated in culture dishes, wherein the rings are submersed in appropriate culture medium. If a holding device is used for culturing, the device should be designed to allow the tissue rings to stay in continuous contact with the culture medium. The choice of the culture medium is not critical. Conventional media for culturing cardiac myocytes may be used. Such media are known in the art and described, for example, in Zimmermann, W. H. et al., Circulation 106, I 151-7 (2002) and published International Application WO 01/55297. […]
FIGS. 1A-1F show the influences of oxygen, load, and insulin in isometric contraction experiments in single engineered heart tissue (EHT) rings (TT: twitch tension). […] To increase size, 5 EHT rings (FIG. 1D) were stacked in a custom made device that facilitate EHT fusion and contractions under auxotonic load (FIG. 1E), resulting in synchronously contracting multiring EHT constructs (FIG. 1F) ready for in vivo engraftment. *P<0.05 vs. 21% 02, static load, and culture in the absence of insulin (Ctr.), respectively by repeated ANOVA. […]

Regarding insulin, the “contracting characteristics (twitch tension) of EHT rings” value was “benefited; also recorded: enhanced contracting characteristics”.
